Test results published in ChEMBL document CHEMBL1145133, “Thienyl and phenyl alpha-halomethyl ketones: new inhibitors of glycogen synthase kinase (GSK-3beta) from a library of compound searching” (J Med Chem, 2003).

Experiments:
[1] = biological target: T1, cAMP-dependent protein kinase (PKA) (Homo sapiens, UniProt P22694+P17612+P22612); experiment: Inhibitory activity against protein kinase A (PKA ); type: protein assay
[2] = biological target: Glycogen synthase kinase-3 beta (Homo sapiens, UniProt P49841); experiment: Inhibitory activity against glycogen synthase kinase-3 (GSK-3beta).
Glycogen synthase kinase-3 beta, sequence (P49841 whole entry): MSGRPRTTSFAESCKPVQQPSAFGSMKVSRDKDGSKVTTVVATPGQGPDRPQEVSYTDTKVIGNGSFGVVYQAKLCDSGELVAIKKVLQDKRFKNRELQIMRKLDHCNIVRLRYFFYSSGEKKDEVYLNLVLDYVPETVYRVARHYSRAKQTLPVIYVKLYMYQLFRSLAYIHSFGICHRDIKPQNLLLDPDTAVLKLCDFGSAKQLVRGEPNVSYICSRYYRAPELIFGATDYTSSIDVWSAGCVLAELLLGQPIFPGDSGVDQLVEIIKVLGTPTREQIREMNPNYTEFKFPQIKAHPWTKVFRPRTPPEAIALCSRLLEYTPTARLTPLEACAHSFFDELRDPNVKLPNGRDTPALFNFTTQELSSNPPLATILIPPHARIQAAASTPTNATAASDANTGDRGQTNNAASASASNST

[3] = biological target: T1, cAMP-dependent protein kinase (PKA); experiment: Inhibition of protein kinase A (PKA); type: protein assay

| Structure (SMILES) | IC50 [1] [µM] | IC50 [2] [µM] | IC50 [3] [µM] |
| --- | --- | --- | --- |
| O=C(CBr)c1ccccc1 | > 100 | 5 | – |
| O=C(CCl)c1ccc(Cl)s1 | > 100 | 10 | – |
| O=C(CCl)c1csc(C(=O)CCl)c1 | > 100 | 1.5 | – |
| Cc1ccsc1C(=O)CCl | – | 75 | – |
| Cc1ccc(C(=O)CCl)s1 | – | > 100 | – |
| O=C(CCl)c1cc(Br)c(Br)s1 | > 100 | 1 | – |
| O=C(CCl)c1ccc(Br)s1 | > 100 | 10 | – |
| O=C(CBr)c1ccc(Br)cc1 | > 100 | 0.5 | – |
| O=C(CCl)c1ccc(Cl)cc1 | > 100 | 2.5 | – |
| O=C(CCl)c1c(Br)sc(Cl)c1Cl | – | 2 | > 100 |
| Cc1c(C(=O)CCl)csc1C(=O)CCl | > 100 | 5 | – |
| CC(=O)c1ccc(C(=O)CCl)s1 | – | 50 | – |
| Cc1sc(C(=O)CCl)cc1C(=O)CCl | – | 5 | – |
| O=C(CCl)c1cc(Br)cs1 | – | 3 | – |
| O=C(CCl)c1c(Br)sc(Br)c1Br | – | 1 | – |
| CC(=O)c1csc(C(=O)CCl)c1 | > 100 | 8 | – |
| O=C(CCl)c1cc(Cl)c(Cl)s1 | – | 2.5 | – |
| O=C(CCl)c1cscc1Cl | > 100 | 25 | – |
| Cc1cc(C(=O)CCl)c(C)s1 | – | > 100 | – |
| O=C(CCl)c1cc(Cl)sc1Cl | > 100 | 5 | – |
| O=C(CCl)c1scc(Br)c1Br | > 100 | 0.5 | – |
| O=C(CCl)c1cccs1 | – | 50 | – |
| O=C(CBr)c1ccc(-c2ccccc2)cc1 | > 100 | 2.5 | – |
| Cc1csc(C(=O)CCl)c1 | – | > 100 | – |
| O=C(CCl)c1ccccc1 [PHENACYL CHLORIDE] | – | 50 | – |
